Results reported in patent publication US8853274B1, “Compositions and methods for targeting glioblastomas cells” (Vanderbilt University, priority 2011, dated 2014).

How the values were obtained:
[1] = tested on: cleaved Notch1; experiment: IHC staining for cleaved Notch1 in intracranial tumors; type: in vivo, Mice; details: oral 30 mg/kg/day, 7 days
Procedure: (A, B) T4302 CD133+ cells were treated with 100 nM GSI±FTI for 48 hours and lysed in RIPA buffer. Mice bearing intracranial T4302 tumors were orally treated with 30 mg/kg/day GSI once a day (q.d.)±100 mg/kg/day FTI twice a day (b.i.d.) for 7 days. Brains were resected and homogenized in RIPA buffer. All lysates were blotted with an antibody specific to prelamin A. (B) Additional brains were fixed and resected for IHC staining for cleaved Notch1. (C) T4302 CD133+ cells were infected with lentivirus expressing firefly luciferase and selected with puromycin for two days. Athymic nude mice were intracranially implanted with 5,000 cells, maintained for 10 days, and treated with GSI±FTI for 20 days as described above. In a separated experiment, animals were treated by the same protocol, except they were given 2 doses of 4 Gy X-ray irradiation on day 11 and day 12, 4 hours after drug administration. These mice were on drugs for 30 days. The median survival was calculated by the GraphPad Prism 5 software. (D) Animals in the unirradiated experiment were tracked for their tumor progression by bioluminescence imaging. The Y axis is set in a log scale. (E,F) The survival curves of these two experiments are shown.

[2] = tested on: T4302 CD133+ cells; experiment: Caspase 3/7 activation (apoptosis); type: cell-based, human; details: 100 nM, day 3
Procedure: (A) T4302 CD133+ GBM stem cells were enriched from freshly collected subcutaneous xenograft tumors, cultured in stem cell media. Cells were left unirradiated or irradiated at 3 Gy. The relative mRNA levels of Hes2 were determined by quantitative real-time PCR at the time points as indicated. (B) T4302 CD133+ cells were pre-treated with vehicle (DMSO), 2 μM DAPT or 0.5 μM L685,458 for 4 hours and irradiated as indicated. Cells were then plated to form neurospheres. Fourteen days after plating, neurospheres containing more than 50 cells were scored. To determine the surviving fractions, the number of neurosphere at each radiation dose was normalized to that of the corresponding sham-irradiated group. (C) T4302 CD133+ cells were treated with GSIs±radiation as indicated. Relative caspase 3/7 activities were determined by normalizing caspase activities to the corresponding cell numbers. (D), (E) T4302 CD133+ cells were infected with lentivirus directing expression of non-targeting shRNA or shRNAs specific to Notch1 or Notch2 (KD-Notch1 or KD-Notch2), and selected with puromycin. Relative caspase 3/7 activities and clonogenic survival were determined as described above. (F) T4302 CD133+ cells were infected with control lentivirus or lentivirus directing expression of NICD2. Clonogenic survival was determined as described above. *: p<0.05 by Student's t-test; #: p<0.01 by one-way ANOVA.
(A, B) T4302 CD133+ cells were treated with 100 nM RO4929097 (GSI) and/or 100 nM tipifarnib (FTI) for 4 hours prior to 3 Gy radiation. (A) Cell growth on day 5 and (B) caspase 3/7 activation on day 3 were determined as described in FIG. 4. #: p<0.001 by one-way ANOVA, combo vs. single agents. (C) The effects of GSIs and FTI against growth of T4302 CD133− cells were determined as described in panel A. (D, E) T4302 CD133+ cells were treated with GSI, FTI, or a 1:1 mixture at different concentrations (ranging from 3000 nM to ˜0.5 nM, 1:3 dilution)±3 Gy radiation. Cell viability was determined at 5 days after treatment in comparison to vehicle-treated groups. […] (F) T4302 CD 133+ cells were treated by GSI±FTI with a 2-fold dilution. Neurospheres were countered on day 10, and normalized to the vehicle-treated group.

CC(C)(C(=O)NCC(F)(F)C(F)(F)F)C(=O)N[C@@H]1C(=O)Nc2ccccc2-c2ccccc21 [RO4929097]
levels of cleaved Notch1 in intracranial tumors (IHC) [1]: decreased the levels of cleaved Notch1 | caspase 3/7 activation, in words ([2]; absence of radiation): without apparent activation of apoptosis | increase of caspase 3/7 activity compared with the sham-treated group ([2]; following 3-Gy radiation): approximately 2 fold
